Key:
[1] = xn = mol fraction of the nth substance listed; details: Liquid, Pycnometric method
[2] = refractive index (Na D-line) (dimensionless); xn = mol fraction of the nth substance listed; details: Liquid, Standard Abbe refractometry
[3] = Liquid, Pycnometric method
[4] = refractive index (Na D-line) (dimensionless); details: Liquid, Standard Abbe refractometry

c1ccccc1 [benzene] + C1COCCO1
x2 = 0
Details | mass density, [1] [kg/m3] | refractive index, [2]
288.15 K | 884.3 | 1.5042
293.15 K | 878.95 | 1.5011
298.15 K | 873.61 | 1.498
303.15 K | 868.26 | 1.4949
308.15 K | 862.9 | 1.4918
313.15 K | 857.56 | 1.4887
318.15 K | 852.23 | 1.4856

Cc1ccccc1 [toluene]
Details | mass density, [3] [kg/m3] | refractive index, [4]
288.15 K | 871.79 | 1.4998
293.15 K | 867.08 | 1.497
298.15 K | 862.36 | 1.4942
303.15 K | 857.64 | 1.4913
308.15 K | 852.93 | 1.4884
313.15 K | 848.21 | 1.4855
318.15 K | 843.49 | 1.4826

C1COCCO1 [1,4-dioxane] + Cc1cccc(C)c1
x1 = 1
Details | mass density, [1] [kg/m3] | refractive index, [2]
288.15 K | 1039.23 | 1.4245
293.15 K | 1033.59 | 1.4224
298.15 K | 1027.95 | 1.4203
303.15 K | 1022.32 | 1.4182
308.15 K | 1016.68 | 1.4161
313.15 K | 1011.05 | 1.4139
318.15 K | 1005.42 | 1.4117

C1COCCO1 [1,4-dioxane]
Details | mass density, [3] [kg/m3] | refractive index, [4]
288.15 K | 1039.23 | 1.4245
293.15 K | 1033.59 | 1.4224
298.15 K | 1027.95 | 1.4203
303.15 K | 1022.32 | 1.4182
308.15 K | 1016.68 | 1.4161
313.15 K | 1011.05 | 1.4139
318.15 K | 1005.42 | 1.4117

C1COCCO1 [1,4-dioxane] + Cc1cc(C)cc(C)c1
x1 = 1
Details | mass density, [1] [kg/m3] | refractive index, [2]
288.15 K | 1039.23 | 1.4245
293.15 K | 1033.59 | 1.4224
298.15 K | 1027.95 | 1.4203
303.15 K | 1022.32 | 1.4182
308.15 K | 1016.68 | 1.4161
313.15 K | 1011.05 | 1.4139
318.15 K | 1005.42 | 1.4117

Cc1ccccc1 [toluene] + C1COCCO1
x2 = 0
Details | mass density, [1] [kg/m3] | refractive index, [2]
288.15 K | 871.79 | 1.4998
293.15 K | 867.08 | 1.497
298.15 K | 862.36 | 1.4942
303.15 K | 857.64 | 1.4913
308.15 K | 852.93 | 1.4884
313.15 K | 848.21 | 1.4855
318.15 K | 843.49 | 1.4826

Cc1cccc(C)c1 [1,3-dimethylbenzene]
Details | mass density, [3] [kg/m3] | refractive index, [4]
288.15 K | 868.59 | 1.4999
293.15 K | 864.31 | 1.4974
298.15 K | 860.02 | 1.4948
303.15 K | 855.74 | 1.4922
308.15 K | 851.45 | 1.4896
313.15 K | 847.17 | 1.487
318.15 K | 842.88 | 1.4844

c1ccccc1 [benzene]
Details | mass density, [3] [kg/m3] | refractive index, [4]
288.15 K | 884.3 | 1.5042
293.15 K | 878.95 | 1.5011
298.15 K | 873.61 | 1.498
303.15 K | 868.26 | 1.4949
308.15 K | 862.9 | 1.4918
313.15 K | 857.56 | 1.4887
318.15 K | 852.23 | 1.4856

Cc1ccccc1C [1,2-dimethylbenzene]
Details | mass density, [3] [kg/m3] | refractive index, [4]
288.15 K | 884.09 | 1.5083
293.15 K | 879.83 | 1.5055
298.15 K | 875.57 | 1.5029
303.15 K | 871.31 | 1.5002
308.15 K | 867.05 | 1.4975
313.15 K | 862.79 | 1.4948
318.15 K | 858.53 | 1.4921

Cc1ccc(C)cc1 [1,4-dimethylbenzene]
Details | mass density, [3] [kg/m3] | refractive index, [4]
288.15 K | 865.52 | 1.4985
293.15 K | 861.17 | 1.4959
298.15 K | 856.82 | 1.4933
303.15 K | 852.47 | 1.4907
308.15 K | 848.12 | 1.4881
313.15 K | 843.77 | 1.4855
318.15 K | 839.42 | 1.483

C1COCCO1 [1,4-dioxane] + Cc1ccccc1C
x1 = 1
Details | mass density, [1] [kg/m3] | refractive index, [2]
288.15 K | 1039.23 | 1.4245
293.15 K | 1033.59 | 1.4224
298.15 K | 1027.95 | 1.4203
303.15 K | 1022.32 | 1.4182
308.15 K | 1016.68 | 1.4161
313.15 K | 1011.05 | 1.4139
318.15 K | 1005.42 | 1.4117

Cc1cc(C)cc(C)c1 [1,3,5-trimethylbenzene]
Details | mass density, [3] [kg/m3] | refractive index, [4]
288.15 K | 869.28 | 1.502
293.15 K | 865.37 | 1.4995
298.15 K | 861.45 | 1.4969
303.15 K | 857.54 | 1.4944
308.15 K | 853.63 | 1.4918
313.15 K | 849.71 | 1.4893
318.15 K | 845.8 | 1.4868

C1COCCO1 [1,4-dioxane] + Cc1ccc(C)cc1
x1 = 1
Details | mass density, [1] [kg/m3] | refractive index, [2]
288.15 K | 1039.23 | 1.4245
293.15 K | 1033.59 | 1.4224
298.15 K | 1027.95 | 1.4203
303.15 K | 1022.32 | 1.4182
308.15 K | 1016.68 | 1.4161
313.15 K | 1011.05 | 1.4139
318.15 K | 1005.42 | 1.4117
